Assay results from patent US20250361243A1, “Compounds and Pharmaceutical Compositions Useful for Managing Sickle Cell Disease and Conditions Related Thereto” (Emory University, priority 2022, published 2025).
Read-outs that look alike come from different tables or passages of the source.

Legend:
Type in all cases: cell-based
[1] = system: ss Mouse RBC; test: Imaging-based anti-sickling assay, ss mouse RBC; conditions: read-out: Anti-sickling activity (EC50; μM) ss Mouse RBC
Description: (§1) An imaging assay utilizing automated microscopy and customized algorithms was used to detect sickled or normal (round shaped) RBCs. The assay is capable of discovering anti-sickling agents with physiologically relevant oxygen affinity. The assay uses native mouse or human RBCs, enabling one to identify a broader spectrum of agents and is not restricted to compounds that require direct interaction (e.g., with purified hemoglobin). Thus, in contrast to hemoglobin binding assays, this approach allows for the identification of additional classes of anti-sickling agents that modulate pathways affecting RBC sickling. Compounds resulting from the experiments are also useful for investigating SCD pathophysiology.
(§2) The imaging-based protocol that can distinguish sickled vs normal (round) phenotype of intact RBCs originating from genetically engineered mice expressing human hemoglobin genes (the HbSS Townes knock-in sickle mice), or 2) SCD patients. The imaging was conducted using a BioTek Cytation™ cell imaging multimode reader and software to detect sickled or normal round-shaped phenotype of RBCs with negative control (vehicle treatment) and a positive control, 5-hydroxymethylfurfural (5-HMF).

[2] = system: Human RBC; test: Imaging-based anti-sickling assay, human RBC
Description: as §1, §2

[3] = system: RBCs; test: Anti-sickling activity normalized to 5 mM 5-HMF (Table 2); conditions: for EC50: read-out: EC50 for anti-sickling activity (uM, normalized to positive control of 5 mM 5-HMF)
Description: as §1, §2

[4] = Homo sapiens; read-out: Anti-sickling activity (EC50; μM) Human RBC

Structure (SMILES) | EC50 [1] [µM] | EC50 [2, 4] [µM] | also measured
Cc1ccc(N2C(=O)C=CC2=O)nc1 [HDYB-16] | < 100 | < 100 | 
CC(C)(C)SCC(O)Cn1c2ccc(Cl)cc2c2cc(Cl)ccc21 (stereo not shown) [SCAS2_61, 1-(tert-butylthio)-3-(3,6-dichloro-9H-carbazol-9-yl) propan-2-ol] |  |  | EC50 [3]: 3.12 µM
O=C1C=CC(=O)N1c1cccnc1 [HDYB-15] | < 100 | < 100 | 
CC(C)CCNCC(O)Cn1c2ccc(Cl)cc2c2cc(Cl)ccc21 (stereo not shown) [SCAS2-A2, 1-(3,6-dichloro-9H-carbazol-9-yl)-3-(isopentylamino) propan-2-ol] |  |  | Anti-sickling activity (%, normalized to positive control of 5 mM 5-HMF) ([3]; 10 uM): 21.45%; Anti-sickling activity (%, normalized to positive control of 5 mM 5-HMF) ([3]; 33 uM): 25.26%; Anti-sickling activity (%, normalized to positive control of 5 mM 5-HMF) ([3]; 100 uM): 213.95%
Nc1nc2ccc(S(=O)(=O)N3CCCCC3)cc2s1 [SCAS2_02, 6-(piperidin-1-ylsulfonyl)benzo[d]thiazol-2-amine] |  |  | EC50 [3]: 25.4 µM
COc1ccc(Cl)cc1NC(=O)Nc1nc2c(s1)CN(S(=O)(=O)C1CC1)CC2 [SCAS2_05, 1-(5-chloro-2-methoxyphenyl)-3-(5-(cyclopropylsulfonyl)-4,5,6,7-tetrahydrothiazolo[5,4-c]pyridin-2-yl)urea] |  |  | round shape morphology of RBCs ([2]; FIG. 2; 50 μM; compared to normoxic conditions and control drug 5 mM 5-HMF): fully restore round shape morphology; prevention of sickling of RBCs from sickle cells patients ([2]; FIG. 2; dose response): dose dependently prevent sickling; EC50 [3]: 2.25 µM
CCC(C)NCC(O)Cn1c2ccc(Cl)cc2c2cc(Cl)ccc21 (stereo not shown) [SCAS2-A14, 1-(sec-butylamino)-3-(3,6-dichloro-9H-carbazol-9-yl) propan-2-ol] |  |  | Anti-sickling activity (%, normalized to positive control of 5 mM 5-HMF) ([3]; 10 uM): 24.26%; Anti-sickling activity (%, normalized to positive control of 5 mM 5-HMF) ([3]; 33 uM): 78.71%; Anti-sickling activity (%, normalized to positive control of 5 mM 5-HMF) ([3]; 100 uM): 131.87%
COc1ccc(Cl)cc1NC(=O)Nc1nc2c(s1)CN(S(=O)(=O)N(C)C)CC2 [SCAS2_01, 2-(3-(5-chloro-2-methoxyphenyl)ureido)-N,N-dimethyl-6,7-dihydrothiazolo[5,4-c]pyridine-5 (4H)-sulfonamide] |  |  | EC50 [3]: 1.1 µM
Cc1cc(Cl)cc(-c2ccccc2)c1N1C(=O)C=CC1=O [HDYB-8, 1-(5-chloro-3-methyl-[1,1′-biphenyl]-2-yl)-1H-pyrrole-2,5-dione] | < 100 | < 100 | 
O=C1C=C(Nc2ccccc2)C(=O)N1c1ccccc1 [HDYB-11] | < 100 | < 100 | 
O=C1C=CC(=O)N1c1ccc(-c2ccccc2)cc1 [HDYB-23, 1-([1,1′-biphenyl]-4-yl)-1H-pyrrole-2,5-dione] | 68 |  | EC50 ([2]; Homo sapiens, read-out: Anti-sickling activity (EC50; μM) Human RBC): 52 µM
O=C1C=CC(=O)N1c1cnc2ccccc2c1 [HDYB-17] | < 100 | < 100 | 
CC(C)CCNCC(O)Cn1c2ccc(Br)cc2c2cc(Br)ccc21 (stereo not shown) [SCAS2-A13, 1-(3,6-dibromo-9H-carbazol-9-yl)-3-(isopentylamino) propan-2-ol] |  |  | Anti-sickling activity (%, normalized to positive control of 5 mM 5-HMF) ([3]; 10 uM): 71.04%; Anti-sickling activity (%, normalized to positive control of 5 mM 5-HMF) ([3]; 33 uM): 90.158%; Anti-sickling activity (%, normalized to positive control of 5 mM 5-HMF) ([3]; 100 uM): 35.39%
O=C1C=CC(=O)N1c1cccc(N2C(=O)C=CC2=O)c1 [HDYB-10] | 78 | 57 | 

Now from value to molecule, other results behind:

EC50 [1] [µM] | EC50 [2, 4] [µM] | Structure (SMILES) | also measured
20 | 12 | O=C1C=CC(=O)N1c1ccc(Br)cc1Cl [HDYB-6, 1-(4-bromo-2-chlorophenyl)-1H-pyrrole-2,5-dione] | 
37 | 32 | Cc1ccc(N2C(=O)C=CC2=O)cc1 [HDYB-21, 1-(p-tolyl)-1H-pyrrole-2,5-dione] | 
11 | 14 | O=C1C=CC(=O)N1c1cccc(F)c1 [HDYB-24, 1-(3-fluorophenyl)-1H-pyrrole-2,5-dione] | 
27 | 23 | O=C1C=CC(=O)N1c1ccc(Br)c(Cl)c1 [HDYB-14, 1-(4-bromo-3-chlorophenyl)-1H-pyrrole-2,5-dione] | 
12 | 12 | O=C1C=CC(=O)N1c1cccc(C(F)(F)F)c1 [HDYB-3, 1-(3-(trifluoromethyl)phenyl)-1H-pyrrole-2,5-dione] | 
22 | 26 | O=C1C(=O)N(Cc2ccc(C(F)(F)F)cc2)c2ccc(Cl)cc21 [HDYB-20] | 
5 | 6.3 | O=C1C=CC(=O)N1c1cccc(Cl)c1 [HDYB-1, 1-(3-chlorophenyl)-1H-pyrrole-2,5-dione] | 
10 | 12 | O=C1C=CC(=O)N1c1cc(Cl)c(N2C(=O)C=CC2=O)cc1Cl [HDYB-25, 1,1′-(2,5-dichloro-1,4-phenylene)bis(1H-pyrrole-2,5-dione)] | 
16 | 12 | Cc1ccc(Cl)cc1N1C(=O)C=CC1=O [HDYB-12, 1-(5-chloro-2-methylphenyl)-1H-pyrrole-2,5-dione] | 
27 | 25 | O=C1C(=O)N(Cc2ccccc2)c2ccc(Cl)cc21 [HDYB-19] | 
29 | 78 | O=C1C=CC(=O)N1CCCCN1C(=O)C=CC1=O [HDYB-9] | 
10 | 11 | O=C1OCc2ccc(N3C(=O)C=CC3=O)cc21 [HDYB-27, 1-(3-oxo-1,3-dihydroisobenzofuran-5-yl)-1H-pyrrole-2,5-dione] | 
21 | 17 | O=C1C=CC(=O)N1c1ccccc1 [HDYB-5, 1-phenyl-1H-pyrrole-2,5-dione] | 
15 | 19 | Cc1ccc(N2C(=O)C=CC2=O)cc1Cl [HDYB-2, 1-(3-chloro-4-methylphenyl)-1H-pyrrole-2,5-dione] | 
9 | 13 | O=C1C=CC(=O)N1c1ccc2c(c1)CCO2 [HDYB-26, 1-(2,3-dihydrobenzofuran-5-yl)-1H-pyrrole-2,5-dione] | 
13 | 41 | O=C1C=CC(=O)N1c1ccc(I)cc1 [HDYB-22, 1-(4-iodophenyl)-1H-pyrrole-2,5-dione] | 
